Assay results: US8758816B2, “Compositions comprising azelastine and methods of use thereof” (priority 2004, dated 2014)

Tested on: patients with seasonal allergic rhinitis (SAR)
Assay: MP 428 study: 14.3.5 Vital Sign Assessments, Safety Population
[1] = Day 14, Patients of Age 12 to 17
[2] = Day 14, Patients of Age 18 and Beyond
[3] = Day 14, baseline at Screening, Patients of Age 12 to 17
[4] = Day 14, baseline at Screening, Patients of Age 18 and Beyond
[5] = Day 14, baseline at Screening, Safety Population
[6] = Screening, Patients of Age 12 to 17
[7] = Screening, Patients of Age 18 and Beyond

**Q.** How did the “Body Weight for Patients of Age 12 to 17, Actual, Median” value [1] turn out when CCC(=O)O[C@]1(C(=O)SCF)[C@H](C)C[C@H]2[C@@H]3C[C@H](F)C4=CC(=O)C=C[C@]4(C)[C@@]3(F)[C@@H](O)C[C@@]21C [Fluticasone, fluticasone propionate] was run?
**A.** 121.5 lb

**Q.** And the “Body Weight for Patients of Age 12 to 17, Actual, Min-Max” value [1]?
**A.** 87-197 lb

**Q.** What about the “Body Weight for Patients of Age 18 and Beyond, Actual, Mean” value [2] of the same molecule?
**A.** 178.2 lb

**Q.** What about the “Body Weight for Patients of Age 18 and Beyond, Actual, Median” value [2] of the same molecule?
**A.** 172.0 lb

**Q.** And the “Body Weight for Patients of Age 18 and Beyond, Actual, Min-Max” value [2]?
**A.** 115-265 lb

**Q.** What about the “Body Weight, Actual, Mean” value (Day 14, Safety Population) of the same molecule?
**A.** 173.0 lb

**Q.** What about the “Body Weight, Actual, Median” value (Day 14, Safety Population) of the same molecule?
**A.** 168.0 lb

**Q.** What about the “Body Weight, Actual, Min-Max” value (Day 14, Safety Population) of the same molecule?
**A.** 87-265 lb

**Q.** What about the “Diastolic Blood Pressure, Actual, Mean” value (Day 14, Safety Population) of the same molecule?
**A.** 73.6 mmHg

**Q.** And the “Diastolic Blood Pressure, Actual, Median” value (Day 14, Safety Population)?
**A.** 74.0 mmHg

**Q.** What about the “Diastolic Blood Pressure, Actual, Min-Max” value (Day 14, Safety Population) of the same molecule?
**A.** 54-90 mmHg

**Q.** What about the “Diastolic Blood Pressure, Change from baseline, Mean” value (Day 14, Safety Population) of the same molecule?
**A.** −0.4 mmHg

**Q.** And the “Diastolic Blood Pressure, Change from baseline, Median” value (Day 14, Safety Population)?
**A.** 0.0 mmHg

**Q.** What about the “Diastolic Blood Pressure, Change from baseline, Min-Max” value (Day 14, Safety Population) of the same molecule?
**A.** −24-22 mmHg

**Q.** And the “Pulse Rate, Actual, Mean” value (Day 14, Safety Population)?
**A.** 75.3 bpm

**Q.** What about the “Pulse Rate, Actual, Median” value (Day 14, Safety Population) of the same molecule?
**A.** 74.0 bpm

**Q.** And the “Pulse Rate, Actual, Min-Max” value (Day 14, Safety Population)?
**A.** 53-95 bpm

**Q.** And the “Pulse Rate, Change from baseline, Mean” value (Day 14, Safety Population)?
**A.** 0.3 bpm

**Q.** What about the “Pulse Rate, Change from baseline, Median” value (Day 14, Safety Population) of the same molecule?
**A.** 1.0 bpm

**Q.** What about the “Pulse Rate, Change from baseline, Min-Max” value (Day 14, Safety Population) of the same molecule?
**A.** −22-23 bpm

**Q.** And the “Respiration, Actual, Mean” value (Day 14, Safety Population)?
**A.** 15.8 bpm

**Q.** What about the “Respiration, Actual, Median” value (Day 14, Safety Population) of the same molecule?
**A.** 16.0 bpm

**Q.** And the “Respiration, Actual, Min-Max” value (Day 14, Safety Population)?
**A.** 12-20 bpm

**Q.** And the “Respiration, Change from baseline, Mean” value (Day 14, Safety Population)?
**A.** 0.0 bpm

**Q.** And the “Respiration, Change from baseline, Median” value (Day 14, Safety Population)?
**A.** 0.0 bpm

**Q.** And the “Respiration, Change from baseline, Min-Max” value (Day 14, Safety Population)?
**A.** −4-4 bpm

**Q.** And the “Systolic Blood Pressure, Actual, Mean” value (Day 14, Safety Population)?
**A.** 118.9 mmHg

**Q.** And the “Systolic Blood Pressure, Actual, Median” value (Day 14, Safety Population)?
**A.** 117.0 mmHg

**Q.** And the “Systolic Blood Pressure, Actual, Min-Max” value (Day 14, Safety Population)?
**A.** 98-170 mmHg

**Q.** And the “Systolic Blood Pressure, Change from baseline, Mean” value (Day 14, Safety Population)?
**A.** 1.0 mmHg

**Q.** And the “Systolic Blood Pressure, Change from baseline, Median” value (Day 14, Safety Population)?
**A.** 1.5 mmHg

**Q.** What about the “Systolic Blood Pressure, Change from baseline, Min-Max” value (Day 14, Safety Population) of the same molecule?
**A.** −20-40 mmHg

**Q.** What about the “Temperature, Actual, Mean” value (Day 14, Safety Population) of the same molecule?
**A.** 97.86 ° F.

**Q.** And the “Temperature, Actual, Median” value (Day 14, Safety Population)?
**A.** 97.90 ° F.

**Q.** What about the “Temperature, Actual, Min-Max” value (Day 14, Safety Population) of the same molecule?
**A.** 96.2-99.1 ° F.

**Q.** What about the “Temperature, Change from baseline, Mean” value (Day 14, Safety Population) of the same molecule?
**A.** −0.03 ° F.

**Q.** And the “Temperature, Change from baseline, Median” value (Day 14, Safety Population)?
**A.** 0.10 ° F.

**Q.** And the “Temperature, Change from baseline, Min-Max” value (Day 14, Safety Population)?
**A.** −1.6-2.0 ° F.

**Q.** What about the “Body Weight for Patients of Age 12 to 17, Change from baseline, Mean” value [3] of the same molecule?
**A.** −0.5 lb

**Q.** What about the “Body Weight for Patients of Age 12 to 17, Change from baseline, Median” value [3] of the same molecule?
**A.** −0.5 lb

**Q.** And the “Body Weight for Patients of Age 12 to 17, Change from baseline, Min-Max” value [3]?
**A.** −2-2 lb

**Q.** What about the “Body Weight for Patients of Age 18 and Beyond, Change from baseline, Mean” value [4] of the same molecule?
**A.** −0.5 lb

**Q.** And the “Body Weight for Patients of Age 18 and Beyond, Change from baseline, Median” value [4]?
**A.** 0.0 lb

**Q.** What about the “Body Weight for Patients of Age 18 and Beyond, Change from baseline, Min-Max” value [4] of the same molecule?
**A.** −6-7 lb

**Q.** And the “Body Weight, Change from baseline, Mean” value [5]?
**A.** −0.5 lb

**Q.** What about the “Body Weight, Change from baseline, Median” value [5] of the same molecule?
**A.** 0.0 lb

**Q.** And the “Body Weight, Change from baseline, Min-Max” value [5]?
**A.** −6-7 lb

**Q.** And the “Body Weight for Patients of Age 12 to 17, Actual, Mean” value [6]?
**A.** 136.3 lb

**Q.** What about the “Body Weight for Patients of Age 12 to 17, Actual, Median” value [6] of the same molecule?
**A.** 122.5 lb

**Q.** And the “Body Weight for Patients of Age 12 to 17, Actual, Min-Max” value [6]?
**A.** 85-199 lb

**Q.** And the “Body Weight for Patients of Age 18 and Beyond, Actual, Mean” value [7]?
**A.** 177.9 lb

**Q.** And the “Body Weight for Patients of Age 18 and Beyond, Actual, Median” value [7]?
**A.** 169.5 lb

**Q.** What about the “Body Weight for Patients of Age 18 and Beyond, Actual, Min-Max” value [7] of the same molecule?
**A.** 117-269 lb

**Q.** And the “Body Weight, Actual, Mean” value (Screening, Safety Population)?
**A.** 172.9 lb

**Q.** And the “Body Weight, Actual, Median” value (Screening, Safety Population)?
**A.** 168.5 lb

**Q.** And the “Body Weight, Actual, Min-Max” value (Screening, Safety Population)?
**A.** 85-269 lb

**Q.** What about the “Diastolic Blood Pressure, Actual, Mean” value (Screening, Safety Population) of the same molecule?
**A.** 75.6 mmHg

**Q.** What about the “Diastolic Blood Pressure, Actual, Median” value (Screening, Safety Population) of the same molecule?
**A.** 78.0 mmHg

**Q.** What about the “Diastolic Blood Pressure, Actual, Min-Max” value (Screening, Safety Population) of the same molecule?
**A.** 50-95 mmHg

**Q.** And the “Pulse Rate, Actual, Mean” value (Screening, Safety Population)?
**A.** 75.5 bpm

**Q.** And the “Pulse Rate, Actual, Median” value (Screening, Safety Population)?
**A.** 78.0 bpm

**Q.** And the “Pulse Rate, Actual, Min-Max” value (Screening, Safety Population)?
**A.** 50-103 bpm

**Q.** What about the “Respiration, Actual, Mean” value (Screening, Safety Population) of the same molecule?
**A.** 15.7 bpm

**Q.** What about the “Respiration, Actual, Median” value (Screening, Safety Population) of the same molecule?
**A.** 16.0 bpm

**Q.** And the “Respiration, Actual, Min-Max” value (Screening, Safety Population)?
**A.** 12-20 bpm

**Q.** And the “Systolic Blood Pressure, Actual, Mean” value (Screening, Safety Population)?
**A.** 121.2 mmHg

**Q.** And the “Systolic Blood Pressure, Actual, Median” value (Screening, Safety Population)?
**A.** 119.5 mmHg

**Q.** What about the “Systolic Blood Pressure, Actual, Min-Max” value (Screening, Safety Population) of the same molecule?
**A.** 96-156 mmHg

**Q.** And the “Temperature, Actual, Mean” value (Screening, Safety Population)?
**A.** 98.04 ° F.

**Q.** What about the “Temperature, Actual, Median” value (Screening, Safety Population) of the same molecule?
**A.** 98.00 ° F.

**Q.** And the “Temperature, Actual, Min-Max” value (Screening, Safety Population)?
**A.** 96.9-99.3 ° F.
